Measurements from patent US20210401782A1, “COMPOSITION FOR PREVENTING AND TREATMENT OF STROKE” (NEUROBIOGEN CO.,LTD, priority 2018, published 2021).

Key:
Type in all cases: in vivo, SD rat
rodent stroke model [1] = experiment: single-pellet reaching task (SPRT) in rodent stroke model; conditions: Stroke+rehab+KDS2010: 10 mg/kg orally once a day plus rehabilitation training; white-matter cerebral infarction rat model
Protocol: (§1) Light stimuli was applied to the posterior limb of the internal capsule of a 9 week-old SD rat to produce a white-matter cerebral infarction animal model.
(§2) Specifically, the animal was anesthetized with an anesthetic drug, a combination of ketamine (ketamine hydrochloride, 100 mg/kg) and xylazine (7 mg/kg), and a hole was drilled at a position of 2.0 mm rearwards and 3.1 mm laterally outwards from the skull bregma using stereotaxis, and an optical fiber (inner diameter of 62.5 μm, outer diameter of 125 μm) was inserted to a depth of 7.2 mm to target the posterior limb of the internal capsule. Rose bengal (20 mg/kg) was injected into the tail vein, and optical stimulation was conducted using a 3.7 mW green laser for 1.5 minutes through an optical fiber. Then, the optical fiber was removed and the operation was completed, ketoprofen (2 mg/kg) was injected for pain control, and then the animal was allowed to recover. The control group was injected with 0.9% saline, instead of rose bengal. […]
For the single-pellet reaching task, an acrylic box (45 cm×13 cm×40 cm) having a 1 cm vertical slit on the front wall thereof was used, and a sugar pellet was placed in front of the slit. […] The proportion of the number of pellets remaining in the mouth, without dropping, to 20 pellets in total was calculated.

rodent stroke model [2] = experiment: cylinder test in rodent stroke model; conditions: Stroke+KDS2010: 10 mg/kg orally once a day, no rehabilitation; compared to the control group
Protocol: as §1, §2
For the cylinder test, animals were placed in a transparent cylinder (20 cm in diameter and 30 cm in height) to observe which limb was used more when supporting the cylinder wall with the forelimbs. A total of 20 movements were recorded, and the ratio of the use of the forelimb corresponding to the stroke and the opposite forelimb was calculated during the total number of cycles.

rodent stroke model [3] = experiment: neurofiber staining, size of the infarction in an internal capsule; conditions: 10 mg/kg orally once a day
Protocol: as §1
Specifically, the animal was anesthetized with an anesthetic drug, a combination of ketamine (ketamine hydrochloride, 100 mg/kg) and xylazine (7 mg/kg), and a hole was drilled at a position of 2.0 mm rearwards and 3.1 mm laterally outwards from the skull bregma using stereotaxis, and an optical fiber (inner diameter of 62.5 μm, outer diameter of 125 μm) was inserted to a depth of 7.2 mm to target the posterior limb of the internal capsule. Rose bengal (20 mg/kg) was injected into the tail vein, and optical stimulation was conducted using a 3.7 mW green laser for 1.5 minutes through an optical fiber. Then, the optical fiber was removed and the operation was completed, ketoprofen (2 mg/kg) was injected for pain control, and then the animal was allowed to recover. The control group was injected with 0.9% saline, instead of rose bengal.
Rats in the group administered with KDS2010 as a drug were orally administered with a solution of KDS2010 in saline at a concentration of 10 mg/kg once a day (FIG. 2A).
Rats in the rehabilitation-trained group practiced a single-pellet reaching task (SPRT) for 20 minutes daily for 3 weeks after stroke surgery. […]

C[C@H](NCc1ccc(-c2ccc(C(F)(F)F)cc2)cc1)C(N)=O [KDS2010, (S)-2-(((4′-trifluoromethylbiphenyl-4-yl)methyl)amino)propanamide methanesulfonate]
motor function through single-pellet reaching task (rodent stroke model [1]): recovered motor function to an almost normal level | motor function using the cylinder test (rodent stroke model [2]): significantly recovered motor function | size of the infarction in the internal capsules (rodent stroke model [3]; Stroke+KDS: drug-administered group, no rehabilitation, versus control group): considerably larger size of the infarction | size of the infarction in the internal capsules (rodent stroke model [3]; Stroke+rehab+KDS: rehabilitation training in combination with drug administration): further reduced infarction sizes
